Key:
[1] = biological target: Serine/threonine-protein kinase PLK1 (Homo sapiens) (UniProt P53350); assay: Residual activity of PLK1 at 0.1 uM by microplate scintillation counting
[2] = biological target: Ephrin type-A receptor 2 (Homo sapiens) (UniProt P29317); assay: Residual activity of EPHA2 at 10 uM by microplate scintillation counting
[3] = biological target: Receptor-type tyrosine-protein kinase FLT3 (Homo sapiens) (UniProt P36888); assay: Residual activity of wild type FLT3 at 10 uM by microplate scintillation counting
Chain of Receptor-type tyrosine-protein kinase FLT3 (Homo sapiens) (P36888 whole entry): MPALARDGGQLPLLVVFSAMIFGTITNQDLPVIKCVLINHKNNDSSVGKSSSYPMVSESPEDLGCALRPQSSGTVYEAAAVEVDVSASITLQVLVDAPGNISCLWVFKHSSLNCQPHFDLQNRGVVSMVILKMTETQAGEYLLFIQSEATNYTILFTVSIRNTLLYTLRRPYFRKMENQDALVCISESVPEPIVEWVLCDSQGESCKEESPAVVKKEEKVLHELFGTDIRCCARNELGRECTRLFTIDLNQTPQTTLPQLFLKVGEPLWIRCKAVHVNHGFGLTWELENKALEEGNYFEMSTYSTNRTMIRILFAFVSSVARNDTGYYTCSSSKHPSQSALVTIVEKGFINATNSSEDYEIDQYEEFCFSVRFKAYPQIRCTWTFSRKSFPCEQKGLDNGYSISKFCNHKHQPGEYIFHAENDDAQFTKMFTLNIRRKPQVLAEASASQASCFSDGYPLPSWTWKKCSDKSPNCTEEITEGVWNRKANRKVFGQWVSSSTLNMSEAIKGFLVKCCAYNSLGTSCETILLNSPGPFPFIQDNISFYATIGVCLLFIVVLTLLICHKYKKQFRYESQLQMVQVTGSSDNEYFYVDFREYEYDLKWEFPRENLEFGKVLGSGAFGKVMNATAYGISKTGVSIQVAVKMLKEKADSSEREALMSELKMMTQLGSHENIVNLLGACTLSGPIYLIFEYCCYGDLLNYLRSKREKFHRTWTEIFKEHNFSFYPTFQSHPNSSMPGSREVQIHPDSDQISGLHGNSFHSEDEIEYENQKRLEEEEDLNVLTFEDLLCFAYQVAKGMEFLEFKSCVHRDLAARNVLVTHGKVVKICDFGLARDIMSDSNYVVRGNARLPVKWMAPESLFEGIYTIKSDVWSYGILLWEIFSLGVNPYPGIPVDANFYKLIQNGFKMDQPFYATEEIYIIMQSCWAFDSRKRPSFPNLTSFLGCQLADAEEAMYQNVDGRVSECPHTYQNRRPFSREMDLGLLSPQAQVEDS

[4] = biological target: CDK1/Cyclin A (Homo sapiens) (UniProt P06493+P20248); assay: Residual activity of CDK1/Cyclin A at 10 uM by microplate scintillation counting; assay type: protein-complex assay
[5] = biological target: Ephrin type-A receptor 7 (Homo sapiens) (UniProt Q15375); assay: Residual activity of EPHA7 at 1 uM by microplate scintillation counting
Chain of Ephrin type-A receptor 7 (Homo sapiens) (Q15375 28-998 limits assumed): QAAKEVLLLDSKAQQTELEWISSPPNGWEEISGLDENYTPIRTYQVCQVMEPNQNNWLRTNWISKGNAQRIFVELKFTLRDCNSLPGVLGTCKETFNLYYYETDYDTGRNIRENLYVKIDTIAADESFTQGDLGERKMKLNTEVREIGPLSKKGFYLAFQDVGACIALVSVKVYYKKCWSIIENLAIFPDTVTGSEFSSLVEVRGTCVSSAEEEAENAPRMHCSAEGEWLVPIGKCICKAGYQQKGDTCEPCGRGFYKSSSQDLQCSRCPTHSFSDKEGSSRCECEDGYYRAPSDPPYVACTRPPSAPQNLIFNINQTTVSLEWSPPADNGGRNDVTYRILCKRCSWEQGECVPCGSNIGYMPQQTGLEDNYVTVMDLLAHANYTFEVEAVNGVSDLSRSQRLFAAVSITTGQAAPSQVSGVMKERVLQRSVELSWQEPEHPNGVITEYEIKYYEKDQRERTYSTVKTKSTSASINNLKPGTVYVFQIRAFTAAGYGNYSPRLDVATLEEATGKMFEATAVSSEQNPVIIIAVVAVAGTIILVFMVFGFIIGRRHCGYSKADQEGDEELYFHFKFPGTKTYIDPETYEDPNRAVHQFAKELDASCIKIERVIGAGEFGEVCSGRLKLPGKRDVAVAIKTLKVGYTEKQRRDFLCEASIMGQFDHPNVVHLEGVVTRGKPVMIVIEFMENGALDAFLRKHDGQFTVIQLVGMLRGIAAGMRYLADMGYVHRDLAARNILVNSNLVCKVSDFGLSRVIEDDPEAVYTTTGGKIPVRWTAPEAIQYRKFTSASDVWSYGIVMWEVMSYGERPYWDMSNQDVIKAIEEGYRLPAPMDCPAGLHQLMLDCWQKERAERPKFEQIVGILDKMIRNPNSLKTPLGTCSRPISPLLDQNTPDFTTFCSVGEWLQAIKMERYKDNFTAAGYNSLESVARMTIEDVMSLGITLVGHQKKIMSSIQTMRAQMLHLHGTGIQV

[6] = biological target: T1, Serine/threonine-protein kinase TBK1 (Homo sapiens) (UniProt Q9UHD2); assay: Residual activity of TBK1 at 1 uM by microplate scintillation counting
T1 sequence (whole entry): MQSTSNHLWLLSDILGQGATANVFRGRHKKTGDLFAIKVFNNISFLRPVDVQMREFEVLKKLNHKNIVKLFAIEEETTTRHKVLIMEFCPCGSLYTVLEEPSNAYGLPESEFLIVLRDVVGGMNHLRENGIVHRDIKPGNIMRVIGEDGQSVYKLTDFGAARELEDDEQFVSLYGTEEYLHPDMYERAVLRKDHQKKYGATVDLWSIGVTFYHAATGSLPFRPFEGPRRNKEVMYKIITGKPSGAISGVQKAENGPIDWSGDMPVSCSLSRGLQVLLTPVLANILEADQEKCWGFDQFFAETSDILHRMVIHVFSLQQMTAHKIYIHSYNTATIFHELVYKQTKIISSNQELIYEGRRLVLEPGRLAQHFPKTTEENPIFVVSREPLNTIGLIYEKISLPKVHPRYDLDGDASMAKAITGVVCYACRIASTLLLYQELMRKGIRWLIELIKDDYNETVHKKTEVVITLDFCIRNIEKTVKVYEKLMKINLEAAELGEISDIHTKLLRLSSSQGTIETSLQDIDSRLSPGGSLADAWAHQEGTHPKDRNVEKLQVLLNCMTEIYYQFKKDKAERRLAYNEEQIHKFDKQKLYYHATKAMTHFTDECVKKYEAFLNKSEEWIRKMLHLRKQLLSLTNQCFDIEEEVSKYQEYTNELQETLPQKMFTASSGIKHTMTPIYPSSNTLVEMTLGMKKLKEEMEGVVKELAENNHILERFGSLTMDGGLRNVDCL

[7] = biological target: Leukocyte tyrosine kinase receptor (Homo sapiens) (UniProt P29376); assay: Residual activity of LTK at 1 uM by microplate scintillation counting
Chain of Leukocyte tyrosine kinase receptor (Homo sapiens) (P29376 whole entry): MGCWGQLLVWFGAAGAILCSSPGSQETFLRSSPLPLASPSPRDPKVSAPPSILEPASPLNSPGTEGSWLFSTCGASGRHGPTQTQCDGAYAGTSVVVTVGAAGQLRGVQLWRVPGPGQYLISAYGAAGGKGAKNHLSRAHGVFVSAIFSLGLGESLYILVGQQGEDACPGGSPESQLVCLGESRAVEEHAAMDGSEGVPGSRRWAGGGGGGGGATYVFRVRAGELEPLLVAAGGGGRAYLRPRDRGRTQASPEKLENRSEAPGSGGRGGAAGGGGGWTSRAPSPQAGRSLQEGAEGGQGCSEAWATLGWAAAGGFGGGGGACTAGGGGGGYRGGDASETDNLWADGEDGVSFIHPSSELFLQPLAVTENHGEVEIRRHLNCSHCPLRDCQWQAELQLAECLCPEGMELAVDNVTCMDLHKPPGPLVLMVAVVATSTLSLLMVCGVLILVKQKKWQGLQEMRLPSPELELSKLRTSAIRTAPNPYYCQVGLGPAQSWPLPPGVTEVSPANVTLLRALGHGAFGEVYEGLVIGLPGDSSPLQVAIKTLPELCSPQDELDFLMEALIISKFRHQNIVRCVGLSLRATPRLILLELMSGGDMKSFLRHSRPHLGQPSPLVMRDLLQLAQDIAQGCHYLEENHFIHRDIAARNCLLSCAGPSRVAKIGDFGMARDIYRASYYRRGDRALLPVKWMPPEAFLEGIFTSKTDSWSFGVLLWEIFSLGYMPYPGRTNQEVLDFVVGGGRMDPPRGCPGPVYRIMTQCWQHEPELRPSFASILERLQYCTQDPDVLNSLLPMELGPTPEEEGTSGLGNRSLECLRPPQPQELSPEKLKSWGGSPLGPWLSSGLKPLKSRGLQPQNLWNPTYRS

[8] = biological target: Protein kinase C beta type (Homo sapiens) (UniProt P05771); assay: Residual activity of PKCbeta1 at 0.1 uM by microplate scintillation counting
Chain of Protein kinase C beta type (Homo sapiens) (P05771 2-671 limits assumed): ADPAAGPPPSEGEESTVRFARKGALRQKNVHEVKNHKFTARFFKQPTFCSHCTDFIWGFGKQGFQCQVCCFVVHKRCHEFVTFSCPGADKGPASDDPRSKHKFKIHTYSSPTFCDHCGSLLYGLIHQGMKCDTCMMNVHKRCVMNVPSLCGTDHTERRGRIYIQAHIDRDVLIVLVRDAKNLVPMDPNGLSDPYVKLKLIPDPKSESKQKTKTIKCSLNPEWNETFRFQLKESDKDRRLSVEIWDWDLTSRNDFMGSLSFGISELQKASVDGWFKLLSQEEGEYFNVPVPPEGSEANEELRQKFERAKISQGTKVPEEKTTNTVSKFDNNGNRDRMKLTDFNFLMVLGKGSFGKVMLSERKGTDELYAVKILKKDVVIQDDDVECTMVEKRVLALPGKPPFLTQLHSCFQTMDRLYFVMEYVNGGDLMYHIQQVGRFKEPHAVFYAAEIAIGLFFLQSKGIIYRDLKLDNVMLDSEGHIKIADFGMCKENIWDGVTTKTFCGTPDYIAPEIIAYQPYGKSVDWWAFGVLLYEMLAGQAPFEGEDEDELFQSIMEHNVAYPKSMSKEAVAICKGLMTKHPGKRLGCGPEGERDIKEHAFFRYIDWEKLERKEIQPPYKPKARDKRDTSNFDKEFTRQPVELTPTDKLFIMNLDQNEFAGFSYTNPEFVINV

[9] = biological target: T2, TGF-beta receptor type-1 (Homo sapiens) (UniProt P36897); assay: Residual activity of TGFB-R1 at 1 uM by microplate scintillation counting
T2 sequence (whole entry): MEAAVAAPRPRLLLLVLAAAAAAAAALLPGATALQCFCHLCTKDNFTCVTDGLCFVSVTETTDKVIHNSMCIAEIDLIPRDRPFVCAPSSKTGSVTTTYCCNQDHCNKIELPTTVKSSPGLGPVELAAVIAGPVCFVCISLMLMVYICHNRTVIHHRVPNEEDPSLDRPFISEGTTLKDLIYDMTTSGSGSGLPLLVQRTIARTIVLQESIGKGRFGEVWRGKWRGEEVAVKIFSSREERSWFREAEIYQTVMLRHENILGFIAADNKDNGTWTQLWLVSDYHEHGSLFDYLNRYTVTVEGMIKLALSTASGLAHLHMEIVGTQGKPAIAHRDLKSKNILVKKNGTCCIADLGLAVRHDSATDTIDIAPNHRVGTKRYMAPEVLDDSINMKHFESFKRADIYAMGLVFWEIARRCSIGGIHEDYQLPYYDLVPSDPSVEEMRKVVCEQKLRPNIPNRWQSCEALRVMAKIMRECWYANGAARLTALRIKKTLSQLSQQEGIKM

[10] = biological target: Platelet-derived growth factor receptor alpha (Homo sapiens) (UniProt P16234); assay: Residual activity of PDGFRalpha at 0.1 uM by microplate scintillation counting
[11] = biological target: Tyrosine-protein kinase SYK (Homo sapiens) (UniProt P43405); assay: Residual activity of SYK at 0.1 uM by microplate scintillation counting
[12] = biological target: T3, Tyrosine-protein kinase JAK3 (Homo sapiens) (UniProt P52333); assay: Residual activity of JAK3 at 1 uM by microplate scintillation counting
T3 sequence (whole entry): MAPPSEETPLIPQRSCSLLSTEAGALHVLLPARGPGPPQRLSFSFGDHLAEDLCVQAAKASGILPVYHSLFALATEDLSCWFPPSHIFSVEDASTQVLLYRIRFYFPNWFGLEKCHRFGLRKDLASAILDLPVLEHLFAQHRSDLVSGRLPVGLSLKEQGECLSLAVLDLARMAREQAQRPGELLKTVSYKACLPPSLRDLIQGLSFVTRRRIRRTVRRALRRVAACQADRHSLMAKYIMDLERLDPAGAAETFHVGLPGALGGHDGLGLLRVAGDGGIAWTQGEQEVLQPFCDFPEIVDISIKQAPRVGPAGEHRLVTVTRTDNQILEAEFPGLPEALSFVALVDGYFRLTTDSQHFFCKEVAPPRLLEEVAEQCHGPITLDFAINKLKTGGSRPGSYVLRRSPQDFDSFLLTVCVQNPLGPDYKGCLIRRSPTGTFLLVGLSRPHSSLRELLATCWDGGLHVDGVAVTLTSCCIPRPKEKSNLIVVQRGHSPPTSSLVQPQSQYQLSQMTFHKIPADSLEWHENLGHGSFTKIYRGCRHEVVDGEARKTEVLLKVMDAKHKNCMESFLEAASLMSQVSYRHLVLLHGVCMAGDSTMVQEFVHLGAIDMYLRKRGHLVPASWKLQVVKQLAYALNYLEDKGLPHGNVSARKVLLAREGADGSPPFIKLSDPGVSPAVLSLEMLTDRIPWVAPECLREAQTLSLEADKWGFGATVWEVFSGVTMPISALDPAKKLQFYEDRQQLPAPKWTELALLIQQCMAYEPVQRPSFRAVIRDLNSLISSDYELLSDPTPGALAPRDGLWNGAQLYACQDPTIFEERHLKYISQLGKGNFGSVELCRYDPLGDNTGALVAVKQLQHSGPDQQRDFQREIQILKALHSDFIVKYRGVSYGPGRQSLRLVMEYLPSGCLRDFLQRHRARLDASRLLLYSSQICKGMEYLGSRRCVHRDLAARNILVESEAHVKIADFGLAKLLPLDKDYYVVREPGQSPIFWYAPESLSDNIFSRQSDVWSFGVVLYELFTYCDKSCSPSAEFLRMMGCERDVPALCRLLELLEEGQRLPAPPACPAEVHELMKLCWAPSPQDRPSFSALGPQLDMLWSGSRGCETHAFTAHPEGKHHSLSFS

Chain of Serine/threonine-protein kinase PLK1 (Homo sapiens) (P53350 whole entry): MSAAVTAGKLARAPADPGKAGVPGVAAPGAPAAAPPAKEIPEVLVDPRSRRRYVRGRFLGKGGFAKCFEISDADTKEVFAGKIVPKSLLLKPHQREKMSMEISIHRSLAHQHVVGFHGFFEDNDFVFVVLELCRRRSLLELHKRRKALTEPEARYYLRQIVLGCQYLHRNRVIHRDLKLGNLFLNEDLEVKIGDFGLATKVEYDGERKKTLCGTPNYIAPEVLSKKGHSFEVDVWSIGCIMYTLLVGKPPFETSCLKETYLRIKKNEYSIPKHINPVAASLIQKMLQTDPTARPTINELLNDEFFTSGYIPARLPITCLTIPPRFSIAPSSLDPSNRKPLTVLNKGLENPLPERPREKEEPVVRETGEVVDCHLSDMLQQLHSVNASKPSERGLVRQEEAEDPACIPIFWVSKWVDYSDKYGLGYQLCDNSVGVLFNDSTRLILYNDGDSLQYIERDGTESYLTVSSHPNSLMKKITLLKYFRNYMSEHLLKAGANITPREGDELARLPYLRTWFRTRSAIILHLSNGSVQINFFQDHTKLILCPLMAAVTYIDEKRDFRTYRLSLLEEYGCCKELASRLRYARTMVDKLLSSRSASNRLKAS
Chain of Ephrin type-A receptor 2 (Homo sapiens) (P29317 whole entry): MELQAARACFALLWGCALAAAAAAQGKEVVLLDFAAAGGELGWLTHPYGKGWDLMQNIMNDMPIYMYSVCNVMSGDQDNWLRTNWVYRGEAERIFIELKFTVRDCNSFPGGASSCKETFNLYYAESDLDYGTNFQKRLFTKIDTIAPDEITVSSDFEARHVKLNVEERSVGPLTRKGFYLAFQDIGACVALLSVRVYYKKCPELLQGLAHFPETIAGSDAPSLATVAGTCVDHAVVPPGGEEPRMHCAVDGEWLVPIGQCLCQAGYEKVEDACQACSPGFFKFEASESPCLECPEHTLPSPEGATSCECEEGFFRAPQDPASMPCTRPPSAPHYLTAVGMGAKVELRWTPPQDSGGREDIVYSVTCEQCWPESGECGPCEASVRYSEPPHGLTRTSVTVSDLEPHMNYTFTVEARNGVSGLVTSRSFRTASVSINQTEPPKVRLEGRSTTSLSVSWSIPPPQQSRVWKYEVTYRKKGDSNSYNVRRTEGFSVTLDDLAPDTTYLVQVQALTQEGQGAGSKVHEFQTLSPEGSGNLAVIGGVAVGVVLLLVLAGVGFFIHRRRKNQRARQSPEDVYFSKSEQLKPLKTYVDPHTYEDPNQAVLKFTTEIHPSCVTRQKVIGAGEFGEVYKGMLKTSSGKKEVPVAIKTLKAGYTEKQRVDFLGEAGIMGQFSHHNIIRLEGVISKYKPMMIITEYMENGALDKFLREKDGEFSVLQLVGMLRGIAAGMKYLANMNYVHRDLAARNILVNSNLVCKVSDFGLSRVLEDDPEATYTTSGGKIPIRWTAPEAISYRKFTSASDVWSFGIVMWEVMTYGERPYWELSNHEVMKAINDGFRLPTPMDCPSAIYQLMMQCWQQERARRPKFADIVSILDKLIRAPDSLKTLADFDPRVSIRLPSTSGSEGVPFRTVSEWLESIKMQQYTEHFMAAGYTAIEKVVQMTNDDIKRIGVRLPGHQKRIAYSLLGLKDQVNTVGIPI

| Structure (SMILES) | residual activity [1] | residual activity [2] | residual activity [3] | residual activity [4] | residual activity [5] | residual activity [6] | residual activity [7] | residual activity [8] | residual activity [9] | residual activity [10] | residual activity [11] | residual activity [12] |
| --- | --- | --- | --- | --- | --- | --- | --- | --- | --- | --- | --- | --- |
| COc1cc2c(Oc3ccc(-c4nc5ccccc5s4)cc3F)ncnc2cc1OCCCN1CCN(C)CC1 | 98% | 73% | 6% | 112% | 94% | 99% | 127% | 109% | 107% | 94% | 97% | 92% |
| COc1cc2c(Oc3ccc(-c4nc5ccccc5s4)cc3)ncnc2cc1OCCCN1CCCC1 | 91% | 187% | 42% | 117% | 114% | 92% | 143% | 102% | 98% | 86% | 103% | 93% |
| COc1cc2c(Oc3ccc(-c4nc5ccccc5s4)cc3)ncnc2cc1OCCCN1CCN(C)CC1 | 94% | 190% | 13% | 129% | 102% | 85% | 123% | 100% | 103% | 86% | 96% | 101% |

From ChEMBL document CHEMBL1152560, “Substituted 2-arylbenzothiazoles as kinase inhibitors: hit-to-lead optimization” (Bioorg Med Chem, 2009)
